No end group written: not given here. fluorescent dye = not defined here

The values below come from patent US20110081293A1, “METHODS AND COMPOSITIONS RELATED TO CLOT-BINDING LIPID COMPOUNDS” (SANFORD-BURNHAM MEDICAL RESEARCH INSTITUTE, priority 2009, published 2011).

The test system of one experiment is MDA-MB-435 tumor. The experiment can be described thus: Whole animal imaging of Alexa Fluor 647-labeled CREKA. It is filed as in vivo, mouse. The settings on record: peptide labeled with Alexa 647. The protocol: (A). Balb/c nude mice bearing MDA-MB-435 human breast cancer xenograft tumors or transgenic MMTV PyMT mice with breast tumors were intravenously injected with 0.1 mg of fluorescein-CREKA. The animals were sacrificed by perfusion 24 hours post-injection and tissue sections were examined by fluorescent microscopy. Right panel, control organs of MDA-MB 435 tumor mice. Magnification 200×. (B). Whole animal imaging of MDA-MB-435 tumor mouse injected 6 hours earlier with 30 μg of Alexa Fluor 647-labeled CREKA. Maestro imaging system (Cambridge Research Inc., Woburn, Mass.) was used to acquire and process the image. The arrow points to the tumor and the arrowhead to the urinary bladder.

Experiment [1] concerns MDA-MB-435 human breast cancer xenografts. The experiment can be described thus: Tumor homing of intravenously injected fluorescent CREKA peptide. It is filed as in vivo, mice. The protocol: (§1) Phage screening, tumors and peptides. In vivo screening of a peptide library with the general structure of CX7C (SEQ ID NO: 4), where C is cysteine and X is any amino acid, was carried out as described (Oh 2004) using 65- to 75-day-old transgenic MMTV PyMT mice (Hutchinson 2000). These mice express the polyoma virus middle T antigen (MT) under the transcriptional control of the mouse mammary tumor virus (MMTV), leading to the induction of multi-focal mammary tumors in 100% of carriers. MDA-MB-435 tumors in nude mice and peptide synthesis have been described (Laakkonen 2002; Laakkonen 2004). B16F1 murine melanoma tumors were grown in fibrinogen null mice (Suh 1995) and their normal littermates and used when they reached 0.5-1 cm in size (Pilch 2006).

A further experiment relates to PyMT tumors. The experiment is described as above. The class given is in vivo, mice. The settings on record: minutes to hours after the injection. The protocol: as §1
The next experiment concerns B16F1 melanomas. The experiment can be described thus: CREKA peptide homing in fibrinogen null mice and normal littermates. It is filed as in vivo. The method, then:
as §1

As for “cys-arg-glu-lys-ala ({fluorescent dye}-CREKA; reading uncertain; also: dye identity not given here) [CREKA peptide]”, the “whole body imaging, peptide accumulation” value in the experiment on MDA-MB-435 tumor is “peptide accumulation in the breast cancer xenografts, and in the bladder”. Also, the “detection of intravenously injected peptide in tumors” value in experiment [1] (MDA-MB-435 xenografts, minutes to hours after the injection) is listed as “readily detectable”; with PyMT tumors, “readily detectable”. Besides, the “detection of peptide in normal tissues” value in experiment [1] (normal tissues) is “essentially undetectable”. In addition, the “accumulation in B16F1 melanomas” value with B16F1 melanomas (fibrinogen null mice) is listed as “failed to accumulate”. Moreover, the “accumulation in B16F1 tumors” value in the experiment with B16F1 melanomas (normal littermates of the null mice) is “formed a brightly fluorescent meshwork”.
